Laboratory results from patent US8697064B2, “Nitrogenated derivatives of pancratistatin” (Pierre Fabre Medicament, priority 2008, dated 2014).
“And” between values parts separate entries of the source, which are not always exact repeats. Equal values may be shown once. Where a name gives a salt, the structure may show the parent alone. Read-outs that look alike come from different tables or passages of the source.

Tests used:
line A549 (lung) = experiment: Cytotoxic activity: inhibition of cell proliferation, ATPLite luminescence of residual ATP after 72 hours; type: cell-based, human; settings: A549 lung tumoral line, 72 hours of incubation
Method: (§1) The cytotoxic activity of the compounds prepared according to the invention was evaluated by measuring inhibition of the cell proliferation of tumoral lines of human origin, such as line A549 (lung) and line HCT 116 (colon). This activity is expressed by IC50, concentration of the tested product capable of inhibiting 50% of cell proliferation. The method used is luminescence measurement of the residual ATP after 72 hours of incubation using the “ATPLite®” kit marketed by Perkin Elmer, as described in the following publication: “Measurement of cytotoxicity by ATP-based luminescence assay in primary cell cultures and cell lines”. I. A. Cree, P. E. Andreotti, Toxicology in Vitro, 11, 553-6, (1997).
(§2) The concentration values are expressed in nanomolar (nM).

line HCT 116 (colon) = experiment: as above; type: cell-based, human; settings: HCT 116 colon tumoral line, 72 hours of incubation, read-out: IC50 (nM) HCT116
Method: as §1, §2

[1] = Solubility measurement in buffer D-PBS 1X (pH = 7.2); settings: for solubility: pH 7.2, aqueous buffer
From the text: The solvent used is constituted by a buffered solution at pH=7.2 “Dulbecco's Phosphate Buffered Saline” (D-PBS 1X), marketed by Gibco (reference 14190).

Compound: [N-]=[N+]=N[C@H]1[C@H](O)[C@@H](O)[C@@H](O)[C@@H]2NC(=O)c3c(cc4c(c3O)OCO4)[C@@H]12 [Compound 5, (1R,2S,3S,4S,4aR,11bR)-1-azido-2,3,4,7-tetrahydroxy-1,2,3,4,4a,5-hexahydro-[1,3]dioxolo[4,5-j]phenanthridin-6(11bH)-one]
- IC50 (line A549 (lung); Homo sapiens): 68 nM
- IC50 (line HCT 116 (colon); Homo sapiens): 36 nM

Compound: N[C@H]1[C@H](O)[C@@H](O)[C@@H](O)[C@@H]2NC(=O)c3c(cc4c(c3O)OCO4)[C@@H]12 [Compound 6, (1R,2S,3R,4S,4aR,11bS)-1-amino-2,3,4,7-tetrahydroxy-1,2,3,4,4a,5-hexahydro-[1,3]dioxolo[4,5-j]phenanthridin-6(11bH)-one]
- IC50 (line A549 (lung); Homo sapiens): 60 nM
- IC50 (line HCT 116 (colon); Homo sapiens): 35 nM
- Solubility Buffer D-PBS 1X (pH = 7.2), mass by volume unit ([1]; D-PBS 1X, pH = 7.2): 508 μg/mL
- Solubility Buffer D-PBS 1X (pH = 7.2), molarity ([1]; D-PBS 1X, pH = 7.2): 1340 μM

Compound: CC(C)(C)OC(=O)N[C@H]1[C@H](O)[C@@H](O)[C@@H](O)[C@@H]2NC(=O)c3c(cc4c(c3O)OCO4)[C@@H]12 [Compound 10, tert-butyl(1R,2S,3S,4S,4aR,11bR)-2,3,4,7-tetrahydroxy-6-oxo-1,2,3,4,4a,5,6,11b-octahydro-[1,3]dioxolo[4,5-j]phenanthridin-1-ylcarbamate]
- IC50 (line A549 (lung); Homo sapiens): 270 nM
- IC50 (line HCT 116 (colon); Homo sapiens): 32 nM

Compound: O=C1N[C@H]2[C@H](O)[C@H](O)[C@@H](O)[C@H](NCc3ccccc3)[C@@H]2c2cc3c(c(O)c21)OCO3 [Compound 14, (1R,2S,3R,4S,4aR,11bS)-1-(benzylamino)-2,3,4,7-tetrahydroxy-1,2,3,4,4a,5-hexahydro-[1,3]dioxolo[4,5-j]phenanthridin-6(11bH)-one]
- IC50 (line A549 (lung); Homo sapiens): 22 nM
- IC50 (line HCT 116 (colon); Homo sapiens): 12 nM

Compound: CN(C)[C@H]1[C@H](O)[C@@H](O)[C@@H](O)[C@@H]2NC(=O)c3c(cc4c(c3O)OCO4)[C@H]21 [Compound 16, (1R,2S,3S,4S,4aR,11bR)-1-(dimethylamino)-2,3,4,7-tetrahydroxy-1,2,3,4,4a,5-hexahydro-[1,3]dioxolo[4,5-j]phenanthridin-6(11bH)-one]
- IC50 (line A549 (lung); Homo sapiens): 150 nM
- IC50 (line HCT 116 (colon); Homo sapiens): 81 nM

Compound: O=C1N[C@H]2[C@H](O)[C@H](O)[C@@H](O)[C@H](NC(=O)C3CCCCC3)[C@@H]2c2cc3c(c(O)c21)OCO3 [Compound 21, N-((1R,2S,3R,4S,4aR,11bS)-2,3,4,7-tetrahydroxy-6-oxo-1,2,3,4,4a,5,6,11b-octahydro-[1,3]dioxolo[4,5-j]phenanthridin-1-yl)cyclohexanecarboxamide]
- IC50 (line A549 (lung); Homo sapiens): 46 nM
- IC50 (line HCT 116 (colon); Homo sapiens): 13 nM

Compound: O=C(N[C@H]1[C@H](O)[C@@H](O)[C@@H](O)[C@@H]2NC(=O)c3c(cc4c(c3O)OCO4)[C@@H]12)c1ccccc1 [Compound 22, N-((1R,2S,3R,4S,4aR,11bS)-2,3,4,7-tetrahydroxy-6-oxo-1,2,3,4,4a,5,6,11b-octahydro-[1,3]dioxolo[4,5-j]phenanthridin-1-yl)benzamide]
- IC50 (line A549 (lung); Homo sapiens): 8.7 nM
- IC50 (line HCT 116 (colon); Homo sapiens): 4.7 nM
- solubility ([1]; Solubility Buffer D-PBS 1X (pH = 7.2), mass by volume unit, D-PBS 1X, pH = 7.2): 393 µg/mL
- solubility ([1]; Solubility Buffer D-PBS 1X (pH = 7.2), molarity, D-PBS 1X, pH = 7.2): 867 µM

Compound: CN(C)Cc1cccc(C(=O)N[C@H]2[C@H](O)[C@@H](O)[C@@H](O)[C@@H]3NC(=O)c4c(cc5c(c4O)OCO5)[C@@H]23)c1 [Compound 28, 3-((dimethylamino)methyl)-N-((1R,2S,3R,4S,4aR,11bS)-2,3,4,7-tetrahydroxy-6-oxo-1,2,3,4,4a,5,6,11b-octahydro-[1,3]dioxolo[4,5-j]phenanthridin-1-yl)benzamide]
- IC50 (line A549 (lung); Homo sapiens): 110 nM
- IC50 (line HCT 116 (colon); Homo sapiens): 130 nM

Compound: N[C@H]1[C@H](O)[C@@H](O)[C@@H](O)[C@@H]2NC(=O)c3c(cc4c(c3O)OCO4)[C@@H]12 [Hydrochloride of Compound 6, (1R,2S,3R,4S,4aR,11bS)-1-amino-2,3,4,7-tetrahydroxy-1,2,3,4,4a,5-hexahydro-[1,3]dioxolo[4,5-j]phenanthridin-6(11bH)-one]
- Solubility Buffer D-PBS 1X (pH = 7.2), molarity ([1]; D-PBS 1X, pH = 7.2): 3870 μM
- Solubility Buffer D-PBS 1X (pH = 7.2), mass by volume unit ([1]; D-PBS 1X, pH = 7.2, listed as compound 6 isolated in the hydrochloride form): 1250 μg/mL

Compound: O=C1N[C@@H]2C(=C[C@H](O)[C@@H](O)[C@H]2O)c2cc3c(c(O)c21)OCO3 [Narciclasine 1, Narciclasine, reference compound]
- IC50 (line A549 (lung)): 49 nM
- IC50 (line HCT 116 (colon)): 22 nM
- solubility [1]: 401 µM and 131 µg/mL
